Read-outs that look alike come from different tables or passages of the source. Each block holds one molecule with its values, some of them ahead of it.
Columns and labels:
[1] = system: Rabbit venous thrombus models; test: In vivo antithrombotic effect evaluation test using rabbit (arteriovenous shunt); settings: prompt i.v. + continuous i.v.
Protocol: Rabbit venous thrombus models were prepared by a modification of the report of Wong et al. (Wong P C. et al., J. Pharmacol. Exp. Ther. 292: 351-357 (2000)). Male rabbits (JW, 2 to 4 kg) were anesthetized by the inhalation of isoflurane (ISOFLU®, manufactured by DS Pharma Animal Health Co., Ltd.) (introduced anesthesia: 4%, continuous anesthesia: 1.5 to 2.5%). A tracheostomy tube was inserted to each rabbit, which was then ventilated using a respirator. For the intravenous administration of a test drug and blood collection, catheters were inserted to the right femoral vein and the right femoral artery, respectively. An arteriovenous shunt filled with saline was inserted to the carotid artery and the jugular vein. The arteriovenous shunt was prepared by connecting Atom extension tubes (4Fr) having lengths of 15 cm and 13 cm to the artery side and the vein side, respectively, of a polyethylene tube (length: 60 cm, outside diameter: 11.1 mm, inside diameter: 7.9 mm). Also, 4-0 silk thread having a length of 5 cm was indwelled in the arteriovenous shunt. Blood was sent for 30 minutes from the carotid artery to the jugular vein via the arteriovenous shunt. The shunt was removed, and the weight of the silk thread covered with thrombus was measured. The weight of the silk thread measured before the experiment was subtracted from the measured weight, and the obtained value was used as a wet thrombus weight. One hour before the open of the arteriovenous shunt, the test drug or a vehicle was promptly intravenously administered (0.67 mL/kg) and then continuously intravenously administered (1 mL/kg/hr). The continuous injection was continued throughout the experiment. Further, an existing anticoagulant dabigatran (antithrombin drug) and rivaroxaban (FXa inhibitor) were tested as control drugs.
In order to measure aPTT of blood samples as an index for the intrinsic coagulation pathway, blood was collected before administration and immediately before cessation of blood flow, and plasma was prepared using 3.2% sodium citrate. After incubation at 37° C. for 6 minutes, an STA reagent Cephascreen (for aPTT assay; manufactured by Roche Diagnostics K.K.) was added in an amount equal thereto, and the mixture was further incubated for 4 minutes. STA calcium chloride (manufactured by Roche Diagnostics K.K.) was added in an amount equal thereto, and the time required for coagulation was measured.
In order to measure prothrombin time (PT) of blood samples as an index for the extrinsic coagulation pathway, blood was collected before administration and immediately before cessation of blood flow, and plasma was prepared using 3.2% sodium citrate. After incubation at 37° C. for 10 minutes, Neoplastin Plus (for PT assay; manufactured by Roche Diagnostics K.K.) was added in a double amount, and the time required for coagulation was measured.

[2] = system: Rabbit nail bleeding models; test: Bleeding time evaluation test using rabbit nail bleeding model; type: in vivo; settings: for Bleeding time: Experiment 1 (maximum 30 minutes), rabbit; for Bleeding time (fold-increase): Experiment 1, ratio to vehicle group average
Protocol: Rabbit nail bleeding models were prepared by a modification of the report of Wong et al. (Wong P C. et al., J. Thromb. Haemost. 7: 1313-1320 (2009)). Male rabbits (JW, 1.5 to 3.5 kg) were anesthetized by the inhalation of isoflurane (ISOFLU®, manufactured by DS Pharma Animal Health Co., Ltd.) (introduced anesthesia: 4%, continuous anesthesia: 2 to 3%).
For the intravenous administration of a test drug or a vehicle, an indwelling needle was inserted to the auricular vein, and the test drug or the vehicle was promptly intravenously administered (0.67 mL/kg) and then continuously intravenously administered (1 mL/kg/hr). One hour after the start of administration, three posterior toenails were cut and dipped in saline heated to approximately 37° C., and the bleeding time was measured. The bleeding time was defined as a time from the cutting to the arrest of bleeding, and an average value from the three nails was used. The measurement time was 30 minutes at the maximum for experiment 1 and 60 minutes at the maximum for experiment 2. In each experiment, if bleeding for 30 minutes or 60 minutes or longer was confirmed, the bleeding time was regarded as 30 minutes or 60 minutes.

[3] = Ester metabolism stability test: stability in human liver; type: in vitro ADME; settings: 37° C., 20 minutes, with NADPH
Protocol: A reaction solution containing 5 μL of human liver S9 (manufactured by Sekisui XenoTech, LLC, 20 mg/mL) mixed with 20 μL of 500 mmol/L Kpi (pH 7.4), 40 μL of a 5 mmol/L aqueous solution of NADPH (manufactured by Oriental Yeast Co., Ltd.), and 133 μL of ion-exchange water was added to 2 μL of a DMSO solution containing a 100 μmol/L test substance, and the mixture was incubated at 37° C. for 20 minutes. After the incubation, the metabolic reaction was terminated by the addition of 600 μL of acetonitrile.

human plasma = test: Ester metabolism stability test: stability in human plasma; type: in vitro ADME; settings: 37° C., 20 minutes
Protocol: 198 μL of human plasma (manufactured by Cosmo Bio Inc.) was added to 2 μL of a DMSO solution containing a 100 μmol/L test substance, and the mixture was incubated at 37° C. for 20 minutes. After the incubation, the metabolic reaction was terminated by the addition of 600 μL of acetonitrile.

[4] = Ester metabolism stability test: metabolite identification by LC-MS
Source text: The metabolites were identified using LC (LC-Nexera X2 manufactured by Shimadzu Corp.)-MS (API4000 manufactured by AB Sciex Pte Ltd.).

Human FXIa = Human FXIa (Homo sapiens, UniProt P03951); test: In vitro activated factor XI (FXIa) inhibition test; type: biochemical; design: purchased Enzyme Research Laboratories
[5] = dose 0.01 + 0.015 mg/kg + mg/kg/h
[6] = dose 0.03 + 0.045 mg/kg + mg/kg/h
[7] = dose 0.1 + 0.15 mg/kg + mg/kg/h
[8] = dose 0.03 + 0.045 mg/kg + mg/kg/h i.v.
[9] = dose 0.1 + 0.15 mg/kg + mg/kg/h i.v.
[10] = dose 0.3 + 0.45 mg/kg + mg/kg/h i.v.
[11] = metabolites identified using LC-MS
[12] = substrate S-2366, 37° C., 10 minutes, read-out: FXIa Inhibition activity IC50

Chain of Human FXIa (P03951 388-625 limits assumed): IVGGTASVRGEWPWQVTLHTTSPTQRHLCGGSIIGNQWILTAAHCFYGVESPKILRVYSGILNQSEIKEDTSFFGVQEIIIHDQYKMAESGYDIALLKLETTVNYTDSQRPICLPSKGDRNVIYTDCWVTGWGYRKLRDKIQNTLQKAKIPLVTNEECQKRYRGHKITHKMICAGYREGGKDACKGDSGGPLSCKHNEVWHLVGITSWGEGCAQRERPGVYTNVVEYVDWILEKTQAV
Chain of Human FXIa (P03951 19-387 partner limits assumed): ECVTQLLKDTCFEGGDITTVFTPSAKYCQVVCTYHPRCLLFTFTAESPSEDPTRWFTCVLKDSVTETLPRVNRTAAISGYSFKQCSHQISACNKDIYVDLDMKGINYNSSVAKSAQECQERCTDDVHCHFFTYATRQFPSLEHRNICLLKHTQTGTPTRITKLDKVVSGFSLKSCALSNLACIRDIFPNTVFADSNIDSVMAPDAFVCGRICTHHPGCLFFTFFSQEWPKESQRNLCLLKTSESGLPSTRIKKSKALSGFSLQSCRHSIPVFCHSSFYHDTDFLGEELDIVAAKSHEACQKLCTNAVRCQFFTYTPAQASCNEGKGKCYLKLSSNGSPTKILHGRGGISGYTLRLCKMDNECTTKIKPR

Compound: CCCCCCOC(=O)NC(=N)c1ccc(NCc2nc3cc(C(=O)N(CCC(=O)OCC)c4ccccn4)ccc3n2C)cc1 [Dabigatran etexilate]
PT (ratio) [1, 5]: 1.07 ± 0.02 ratio | Thrombus weight [1, 5]: 62 ± 18 mg | aPTT (ratio) [1, 5]: 1.28 ± 0.07 ratio | PT (ratio) [1, 6]: 1.23 ± 0.10 ratio | Thrombus weight [1, 6]: 32 ± 9 mg | aPTT (ratio) [1, 6]: 1.58 ± 0.15 ratio | PT (ratio) [1, 7]: 2.29 ± 0.29 ratio | Thrombus weight [1, 7]: 12 ± 4 mg | aPTT (ratio) [1, 7]: 2.34 ± 0.12 ratio | Bleeding time [2, 8]: 1276 ± 353 s | Bleeding time [2, 9]: 1800 ± 0 s | Bleeding time [2, 10]: 1800 ± 0 s | Bleeding time (fold-increase) [2, 8]: 2.7 ± 0.7 fold-increase | Bleeding time (fold-increase) [2, 9]: 3.8 ± 0.0 fold-increase | Bleeding time (fold-increase) [2, 10]: 3.8 ± 0.0 fold-increase

Compound: CC1(C)OC(=O)c2cc3cc(NC(=O)[C@@H]4[C@H](C5CCCCC5)CCN4C(=O)[C@H]4CC[C@H]([C@H](N)CF)CC4)ccc3n21.Cl [Example 1, (2S,3S)-1-({trans-4-[(1S)-1-Amino-2-fluoroethyl]cyclohexyl}carbonyl)-N-(3,3-dimethyl-1-oxo-1H-[1,3]oxazolo[3,4-a]indol-7-yl)-3-cyclohexylpyrrolidine-2-carboxamide hydrochloride]
Residual rate (%) Human liver S9 [3]: 87% | Residual rate (%) Human plasma (human plasma): 29% | Metabolite formed (conversion by metabolism) [4, 11]: converted to the compound of Reference Example 2-6

Compound: Cl.N[C@H](CF)[C@H]1CC[C@H](C(=O)N2CC[C@@H](C3CCCCC3)[C@H]2C(=O)Nc2ccc3c(c2)cc2n3C(CF)(CF)OC2=O)CC1 [Example 6, (3S)-1-({trans-4-[(1S)-1-amino-2-fluoroethyl]cyclohexyl}carbonyl)-N-[3,3-bis(fluoromethyl)-1-oxo-1H-[1,3]oxazolo[3,4-a]indol-7-yl]-3-cyclohexyl-L-prolinamide hydrochloride]
Residual rate (%) Human liver S9 [3]: 67% | Residual rate (%) Human plasma (human plasma): 7.9% | Metabolite formed (conversion by metabolism) [4, 11]: converted to the compound of Reference Example 2-6

Compound: CO[C@H]1CC[C@H]([C@@H]2CCN(C(=O)[C@H]3CC[C@H]([C@H](N)CF)CC3)[C@@H]2C(=O)Nc2ccc3c(c2)cc2n3C(C)(C)OC2=O)CC1.Cl [Example 10, (3S)-1-({trans-4-[(1S)-1-amino-2-fluoroethyl]cyclohexyl}carbonyl)-N-(3,3-dimethyl-1-oxo-1H-[1,3]oxazolo[3,4-a]indol-7-yl)-3-(trans-4-methoxycyclohexyl)-L-prolinamide hydrochloride]
Residual rate (%) Human liver S9 [3]: 98% | Residual rate (%) Human plasma (human plasma): 6.7% | Metabolite formed (conversion by metabolism) [4, 11]: converted to the compound of Example 24

Residual rate (%) Human liver S9 [3]: 69% | Residual rate (%) Human plasma (human plasma): 21% | Metabolite formed (conversion by metabolism) ([4]; human, 20 min, 1 μmol/L): converted to the compound of Example 24
Compound: CO[C@H]1CC[C@H]([C@@H]2CCN(C(=O)[C@H]3CC[C@H]([C@H](N)CF)CC3)[C@@H]2C(=O)Nc2ccc3c(c2)cc2n3C(CF)(CF)OC2=O)CC1 [Example 13, (3S)-1-({trans-4-[(1S)-1-amino-2-fluoroethyl]cyclohexyl}carbonyl)-N-[3,3-bis(fluoromethyl)-1-oxo-1H-[1,3]oxazolo[3,4-a]indol-7-yl]-3-(trans-4-methoxycyclohexyl)-L-prolinamide]

Residual rate (%) Human liver S9 [3]: 47% | Residual rate (%) Human plasma (human plasma): <1% | Metabolite formed (conversion by metabolism) ([4]; human, 20 min, 1 μmol/L): converted to the compound of Example 24
Compound: CO[C@H]1CC[C@H]([C@@H]2CCN(C(=O)[C@H]3CC[C@H]([C@H](N)CF)CC3)[C@@H]2C(=O)Nc2ccc3c(c2)cc2n3C3(CCC3)OC2=O)CC1 [Example 14, (3S)-1-({trans-4-[(1S)-1-amino-2-fluoroethyl]cyclohexyl}carbonyl)-3-(trans-4-methoxycyclohexyl)-N-(1′-oxo-1′H-spiro[cyclobutane-1,3′-[1,3]oxazolo[3,4-a]indol]-7′-yl)-L-prolinamide]

IC50 (Human FXIa; [12]): 0.003 µM
Compound: NC[C@H]1CC[C@H](C(=O)N2CC[C@@H](C3CCCCC3)[C@H]2C(=O)Nc2ccc3[nH]c(C(=O)O)cc3c2)CC1 [Example 23]

IC50 (Human FXIa; [12]): 0.019 µM
Compound: N[C@H](CF)[C@H]1CC[C@H](C(=O)N2CC[C@@H](N3CCCCC3)[C@H]2C(=O)Nc2ccc3[nH]c(C(=O)O)cc3c2)CC1 [Example 25, 5-[(2S,3R)-1-({trans-4-[(1S)-1-Amino-2-fluoroethyl]cyclohexyl}carbonyl)-3-(piperidin-1-yl)pyrrolidine-2-carboxamide]-1H-indole-2-carboxylic acid 2-trifluoroacetate]

Compound: NC(CF)[C@H]1CC[C@H](C(=O)N2CC[C@@H](C3CCCCC3)[C@H]2C(=O)Nc2ccc3[nH]c(C(=O)O)c(F)c3c2)CC1 (some centres unmarked) [Reference Example 36]
IC50 (Human FXIa; [12]): 0.045 µM

IC50 (Human FXIa; [12]): 0.091 µM
Compound: CCc1c(C(=O)O)[nH]c2ccc(NC(=O)[C@@H]3[C@H](C4CCCCC4)CCN3C(=O)[C@H]3CC[C@H]([C@H](N)CF)CC3)cc12 [Reference Example 42]

Compound: N[C@H](CF)[C@H]1CC[C@H](C(=O)N2CC[C@@H](C3CCCCC3)[C@H]2C(=O)Nc2ccc3[nH]c(C(=O)O)c(Cl)c3c2)CC1 [compound 37]
IC50 (Human FXIa): 0.018 µM

Compound: NC(CF)[C@H]1CC[C@H](C(=O)N2CC[C@@H](c3ccc(F)cc3)[C@H]2C(=O)Nc2ccc3[nH]c(C(=O)O)cc3c2)CC1 (some centres unmarked) [compound 38]
IC50 (Human FXIa; [12]): 0.03 µM

Compound: Cc1c(C(=O)O)[nH]c2ccc(NC(=O)[C@@H]3[C@H](C4CCCCC4)CCN3C(=O)[C@H]3CC[C@H]([C@H](N)CF)CC3)cc12 [compound 39]
IC50 (Human FXIa; [12]): 0.145 µM

Compound: NC[C@H]1CC[C@H](C(=O)N2CC[C@@H](c3ccccc3)[C@H]2C(=O)Nc2ccc3[nH]c(C(=O)O)cc3c2)CC1 [compound 40]
IC50 (Human FXIa; [12]): 0.009 µM

Compound: COc1ccc([C@H]2CCN(C(=O)[C@H]3CC[C@H]([C@H](N)CF)CC3)[C@@H]2C(=O)Nc2ccc3[nH]c(C(=O)O)cc3c2)cc1 [compound 43]
IC50 (Human FXIa; [12]): 0.076 µM

Compound: N[C@H](CF)[C@H]1CC[C@H](C(=O)N2CC[C@H](c3ccc(F)cc3)[C@H]2C(=O)Nc2ccc3[nH]c(C(=O)O)cc3c2)CC1 [compound 44]
IC50 (Human FXIa; [12]): 0.033 µM

Compound: N[C@H](CF)[C@H]1CC[C@H](C(=O)N2CC[C@H](c3ccccc3)[C@H]2C(=O)Nc2ccc3[nH]c(C(=O)O)c(Cl)c3c2)CC1 [compound 45]
IC50 (Human FXIa; [12]): 0.06 µM
